Test results published in paper PMC11983575, “Study on the synthesis and biological activity of kojic acid triazol thiosemicarbazide Schiff base derivatives” (Journal of Enzyme Inhibition and Medicinal Chemistry, 2025).

Legend:
[1] = ABTS radical cation scavenging activity assay; details: 734 nm; read-out: ABTS+/IC50 (μM) ± SD
Procedure: ABTS free radical scavenging activity was performed according to the procedure described by Zhang et al.[40] Test solution of ABTS decolourisation assay was prepared by mixing 2.45 mM potassium persulfate and 7 mM ABTS at 8:12 volume/volume ratio. The working solution was kept in the dark at room temperature for 12–18 h. Before ABTS radical scavenging test, the ABTS test solution was diluted with DMSO to absorbance of 0.7 (±0.02) at 734 nm. One millilitre of diluted ABTS test solution was added to 10 μl of DMSO or test sample. After initial mixing, the working solution was kept in the dark at room temperature for 2–6 min, and the absorbance was measured at 734 nm. This test was carried out in triplicate. DMSO was used as a control. Ascorbic acid was used as antioxidant standard for comparison of the activity. The absorbance of test samples was calculated by the following formula. ABTS scavenging ability %=absorbance of standard−absorbance of sample/absorbance of standard×100.

[2] = DPPH free radical scavenging activity assay; details: DPPH 150 μM, 30 min, 517 nm; read-out: DPPH/IC50 (μM) ± SD
Procedure: The anti-oxidation effect on DPPH radical was determined by a slightly modified version of a previously described DPPH radical scavenging assay. Reaction mixtures consisted of 100 μl of DPPH (150 μM), 20 μl of increasing concentration of test compounds and the volume was adjusted to 200 μl in each well with DMSO. The assay solution was then incubated at room temperature (25 °C) for 30 min in the dark. After the incubation, absorbance at 517 nm was measured by using UV-2600 spectrophotometer. The experiments were undertaken in triplicate. DMSO was used as a control. Ascorbic acid was used as antioxidant standard for comparison of the activity. The calculation of DPPH radical scavenging activity was followed by this formula: DPPH radical scavenging activity %=absorbance of standard−absorbance of sample/Absorbance of standard×100

mushroom tyrosinase = mushroom tyrosinase (Agaricus bisporus, UniProt C7FF04); assay: In vitro mushroom tyrosinase inhibition (L-DOPA substrate); assay type: biochemical; details: 475 nm, read-out: IC50 (μM) ± SD, inhibitory tyrosinase activity
Procedure: The mushroom tyrosinase inhibitory activity was determined according to previous described method. Briefly, 168 μl of phosphate buffer (0.1 M, pH 6.8), 10 μl of mushroom tyrosinase (0.5 mg/ml, Sigma Chemical, St. Louis, MO) and 2 μl of the inhibitor solution were placed in the wells of a 96-well micro plate. After pre-incubation for 20 min at 37 °C, 20 μl of 2.0 mg/ml L-DOPA (3,4-dihydroxyphenylalanine, Sigma Chemical, St. Louis, MO) was added and the enzyme activity was measured at 475 nm every 60 s for 180 s in a Microplate Reader (Bio-Rad Laboratories, Inc., Hercules, CA). Kojic acid and phosphate buffer were respectively used as positive and negative control. The extent of inhibition by the test compounds was expressed as the percentage of concentration necessary to achieve 50% inhibition (IC50). The percentage of inhibition was calculated as follows: inhibitory rate (%) = [Ac − At)/Ac] × 100. Ac is the absorbance of the negative control and At is the absorbance of the test compound. Each concentration was analysed in three independent experiments run in triplicate. The IC50 values were determined by the data analysis software GraphPad Prism 8 (La Jolla, CA).
The tyrosinase inhibition measurements of compounds 6a–6x were carried out using L-DOPA as substrate. Kojic acid was selected as a positive control compound. […]. […] Moreover, inhibitory activity of compound with hydroxyl group at papa position is better than the inhibitory activity of compound with hydroxyl group at meta position, and inhibitory activity of compound with hydroxyl group at meta position is better than the inhibitory activity of compound with hydroxyl group at ortho position. […]. […] In addition, with the increase of atomic radius, the inhibitory activity gradually decreases. (3) The inhibitory activity of alkoxy substituted compound is better than that of alkyl substituted compound. (4) Comparing the tyrosinase inhibitory activity of compounds with halogen atom (6b–6d, 6q–6s) and compounds with methyl or methoxy (6e–6f, 6t–6u), when the hydrogen (R^2) was replaced by the methyl (R^2), the inhibitory activity was decreased.

mushroom tyrosinase, sequence (C7FF04 1-392): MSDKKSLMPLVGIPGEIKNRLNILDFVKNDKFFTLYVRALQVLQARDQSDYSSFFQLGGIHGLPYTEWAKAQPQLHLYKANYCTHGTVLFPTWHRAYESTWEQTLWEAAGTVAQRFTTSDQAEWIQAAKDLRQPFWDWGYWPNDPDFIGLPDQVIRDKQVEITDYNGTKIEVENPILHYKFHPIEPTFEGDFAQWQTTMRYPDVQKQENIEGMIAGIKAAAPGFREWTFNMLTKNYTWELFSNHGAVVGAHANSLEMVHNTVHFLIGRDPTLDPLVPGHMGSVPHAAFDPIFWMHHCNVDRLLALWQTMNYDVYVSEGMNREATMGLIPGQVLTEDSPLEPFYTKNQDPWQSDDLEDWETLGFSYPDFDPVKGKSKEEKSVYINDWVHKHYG

Row | IC50 [1] | IC50 [2] | Compound | IC50 (mushroom tyrosinase)
1 | 6.61 ± 0.054 µM | 47.05 ± 0.042 µM | CC(=NNC(N)=S)c1ccc(F)cc1OCc1cn(Cc2cc(=O)c(O)co2)nn1 [Compound 6q, 2-(1-(4-Fluoro-2-((1-((5-hydroxy-4-oxo-4H-pyran-2-yl)methyl)-1H-1,2,3-triazol-4-yl)methoxy)phenyl)ethylidene)hydrazinecarbothioamide] | –
2 | 72.03 ± 0.084 µM | 104.7 ± 0.088 µM | NC(=S)NN=Cc1ccc(Cl)cc1OCc1cn(Cc2cc(=O)c(O)co2)nn1 [Compound 6c, 2-(4-Chloro-2-((1-((5-hydroxy-4-oxo-4H-pyran-2-yl)methyl)-1H-1,2,3-triazol-4-yl)methoxy)benzylidene)hydrazinecarbothioamide] | –
3 | 55.48 ± 0.04 µM | 27.25 ± 0.015 µM | O=C1O[C@H]([C@@H](O)CO)C(O)=C1O [Vitamin C, Ascorbic acid, reference compound] | –
4 | 11.29 ± 0.033 µM | 105.8 ± 0.092 µM | CC(=NNC(N)=S)c1ccc(Br)cc1OCc1cn(Cc2cc(=O)c(O)co2)nn1 [Compound 6s, 2-(1-(4-Bromo-2-((1-((5-hydroxy-4-oxo-4H-pyran-2-yl)methyl)-1H-1,2,3-triazol-4-yl)methoxy)phenyl)ethylidene)hydrazinecarbothioamide] | –
5 | 5.27 ± 0.078 µM | 55.7 ± 0.154 µM | CC(=NNC(N)=S)c1ccc(C)cc1OCc1cn(Cc2cc(=O)c(O)co2)nn1 [Compound 6u, 2-(1-(2-((1-((5-Hydroxy-4-oxo-4H-pyran-2-yl)methyl)-1H-1,2,3-triazol-4-yl)methoxy)-4-methylphenyl)ethylidene)hydrazinecarbothioamide] | –
6 | 8.24 ± 0.048 µM | 87.47 ± 0.144 µM | COc1ccc(C=NNC(N)=S)c(OCc2cn(Cc3cc(=O)c(O)co3)nn2)c1 [Compound 6e, 2-(2-((1-((5-Hydroxy-4-oxo-4H-pyran-2-yl)methyl)-1H-1,2,3-triazol-4-yl)methoxy)-4-methoxybenzylidene)hydrazinecarbothioamide] | –
7 | 91.1 ± 0.033 µM | 71.43 ± 0.036 µM | NC(=S)NN=Cc1ccc(Br)cc1OCc1cn(Cc2cc(=O)c(O)co2)nn1 [Compound 6d, 2-(4-Bromo-2-((1-((5-hydroxy-4-oxo-4H-pyran-2-yl)methyl)-1H-1,2,3-triazol-4-yl)methoxy)benzylidene)hydrazinecarbothioamide] | –
8 | 9.31 ± 0.022 µM | 49.17 ± 0.077 µM | CC(C)(C)c1cccc(C=NNC(N)=S)c1OCc1cn(Cc2cc(=O)c(O)co2)nn1 [Compound 6k, 2-(3-(Tert-butyl)-2-((1-((5-hydroxy-4-oxo-4H-pyran-2-yl)methyl)-1H-1,2,3-triazol-4-yl)methoxy)benzylidene)hydrazinecarbothioamide] | –
9 | 68.49 ± 0.091 µM | 118.4 ± 0.049 µM | NC(=S)NN=Cc1cc(Br)ccc1OCc1cn(Cc2cc(=O)c(O)co2)nn1 [Compound 6h, 2-(5-Bromo-2-((1-((5-hydroxy-4-oxo-4H-pyran-2-yl)methyl)-1H-1,2,3-triazol-4-yl)methoxy)benzylidene)hydrazinecarbothioamide] | –
10 | 43.89 ± 0.034 µM | 173.2 ± 0.058 µM | NC(=S)NN=Cc1ccccc1OCc1cn(Cc2cc(=O)c(O)co2)nn1 [Compound 6a, (2-((1-((5-Hydroxy-4-oxo-4H-pyran-2-yl)methyl)-1H-1,2,3-triazol-4-yl)methoxy)benzylidene)hydrazinecarbothioamide] | –
11 | 52.65 ± 0.109 µM | 133.8 ± 0.048 µM | NC(=S)NN=Cc1cc(Cl)ccc1OCc1cn(Cc2cc(=O)c(O)co2)nn1 [Compound 6g, 2-(5-Chloro-2-((1-((5-hydroxy-4-oxo-4H-pyran-2-yl)methyl)-1H-1,2,3-triazol-4-yl)methoxy)benzylidene)hydrazinecarbothioamide] | –
12 | 4.49 ± 0.103 µM | 53.54 ± 0.088 µM | CC(=NNC(N)=S)c1ccc(Cl)cc1OCc1cn(Cc2cc(=O)c(O)co2)nn1 [Compound 6r, 2-(1-(4-Chloro-2-((1-((5-hydroxy-4-oxo-4H-pyran-2-yl)methyl)-1H-1,2,3-triazol-4-yl)methoxy)phenyl)ethylidene)hydrazinecarbothioamide] | –
13 | 61.66 ± 0.091 µM | 248.1 ± 0.041 µM | Cc1ccc(OCc2cn(Cc3cc(=O)c(O)co3)nn2)c(C=NNC(N)=S)c1 [Compound 6i, 2-(2-((1-((5-Hydroxy-4-oxo-4H-pyran-2-yl)methyl)-1H-1,2,3-triazol-4-yl)methoxy)-5-methylbenzylidene)hydrazinecarbothioamide] | –
14 | 3.19 ± 0.034 µM | 10.53 ± 0.014 µM | CC(=NNC(N)=S)c1ccccc1OCc1cn(Cc2cc(=O)c(O)co2)nn1 [Compound 6p, 2-(1-(2-((1-((5-Hydroxy-4-oxo-4H-pyran-2-yl)methyl)-1H-1,2,3-triazol-4-yl)methoxy)phenyl)ethylidene)hydrazinecarbothioamide] | –
15 | 63.1 ± 0.042 µM | 105.4 ± 0.115 µM | NC(=S)NN=Cc1ccc(F)cc1OCc1cn(Cc2cc(=O)c(O)co2)nn1 [Compound 6b, 2-(4-Fluoro-2-((1-((5-hydroxy-4-oxo-4H-pyran-2-yl)methyl)-1H-1,2,3-triazol-4-yl)methoxy)benzylidene)hydrazinecarbothioamide] | –
16 | 6.78 ± 0.082 µM | 25.6 ± 0.031 µM | CCOc1cccc(C=NNC(N)=S)c1OCc1cn(Cc2cc(=O)c(O)co2)nn1 [Compound 6j, 2-(3-Ethoxy-2-((1-((5-hydroxy-4-oxo-4H-pyran-2-yl)methyl)-1H-1,2,3-triazol-4-yl)methoxy)benzylidene)hydrazinecarbothioamide] | –
17 | 34.95 ± 0.061 µM | 99.6 ± 0.056 µM | Cc1ccc(C=NNC(N)=S)c(OCc2cn(Cc3cc(=O)c(O)co3)nn2)c1 [Compound 6f, 2-(2-((1-((5-Hydroxy-4-oxo-4H-pyran-2-yl)methyl)-1H-1,2,3-triazol-4-yl)methoxy)-4-methylbenzylidene)hydrazinecarbothioamide] | –
18 | 3.91 ± 0.064 µM | 86.3 ± 0.058 µM | COc1ccc(C(C)=NNC(N)=S)c(OCc2cn(Cc3cc(=O)c(O)co3)nn2)c1 [Compound 6t, 2-(1-(2-((1-((5-Hydroxy-4-oxo-4H-pyran-2-yl)methyl)-1H-1,2,3-triazol-4-yl)methoxy)-4-methoxyphenyl)ethylidene)hydrazinecarbothioamide] | –
19 | 3.2 ± 0.091 µM | 16.27 ± 0.093 µM | CC(=NNC(N)=S)c1cccc(OCc2cn(Cc3cc(=O)c(O)co3)nn2)c1 [Compound 6v, 2-(1-(3-((1-((5-Hydroxy-4-oxo-4H-pyran-2-yl)methyl)-1H-1,2,3-triazol-4-yl)methoxy)phenyl)ethylidene)hydrazinecarbothioamide] | –

Row | Compound | IC50 [1] | IC50 [2] | IC50 (mushroom tyrosinase)
20 | 2-(4-((1-((5-Hydroxy-4-oxo-4H-pyran-2-yl)methyl)-1H-1,2,3-triazol-5-yl)methoxy)-3-methylbenzylidene)hydrazinecarbothioamide [Compound 6o] | 17.95 ± 0.048 µM | 193.9 ± 0.022 µM | 12.38 ± 0.014 µM
21 | 2-(3-((1-((5-Hydroxy-4-oxo-4H-pyran-2-yl)methyl)-1H-1,2,3-triazol-5-yl)methoxy)benzylidene)hydrazinecarbothioamide [Compound 6l] | 40.23 ± 0.071 µM | 81.67 ± 0.073 µM | 5.45 ± 0.077 µM
22 | 2-(4-((1-((5-Hydroxy-4-oxo-4H-pyran-2-yl)methyl)-1H-1,2,3-triazol-5-yl)methoxy)benzylidene)hydrazinecarbothioamide [Compound 6m] | 36.17 ± 0.018 µM | 195 ± 0.038 µM | 1.58 ± 0.092 µM
23 | 2-(1-(4-((1-((5-Hydroxy-4-oxo-4H-pyran-2-yl)methyl)-1H-1,2,3-triazol-5-yl)methoxy)-3-methylphenyl)ethylidene)hydrazinecarbothioamide [Compound 6x] | 19.94 ± 0.081 µM | 159.2 ± 0.061 µM | 2.35 ± 0.021 µM
